# According to the supplement of paper PMC11061612:
# Columns and labels:
# Carboplatin = compound: C1CC(C1)(C(=O)[O-])C(=O)[O-].N.N.[Pt+2] [Carboplatin]; details: max 10 µM
# Method in brief: (§1)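 Cancer cell lines were seeded in 1536-well plates in 7.5 μl DMEM/F12 or RPMI with 10% FBS, held 24 hours at 37°C and 5% CO2, then dosed for 72 hours (final DMSO typically 0.2%). Viability was read by CellTiter-Glo 2.0 luminescence and scaled between blank-well and DMSO-well means. The single-agent IC50 comes from dose responses fitted to a two-parameter logistic curve with a non-linear mixed effects model.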
# AZD5363 = compound: C1CN(CCC1(C(=O)N[C@@H](CCO)C2=CC=C(C=C2)Cl)N)C3=NC=NC4=C3C=CN4 [AZD5363]; details: max 10 µM
# Method in brief: as §1
# AZD1775 = compound: C=CCn1c(=O)c2cnc(Nc3ccc(N4CCN(C)CC4)cc3)nc2n1-c1cccc(C(C)(C)O)n1 [AZD1775]; details: max 3 µM
# Method in brief: as §1
# Trametinib = compound: CC(=O)Nc1cccc(-n2c(=O)n(C3CC3)c(=O)c3c(Nc4ccc(I)cc4F)n(C)c(=O)c(C)c32)c1 [Trametinib]; details: max 1 µM
# Method in brief: as §1
# Paclitaxel = compound: CC(=O)O[C@H]1C(=O)[C@@]2(C)[C@H]([C@H](OC(=O)c3ccccc3)[C@]3(O)C[C@H](OC(=O)[C@H](O)[C@@H](NC(=O)c4ccccc4)c4ccccc4)C(C)=C1C3(C)C)[C@]1(OC(C)=O)CO[C@@H]1C[C@@H]2O [Paclitaxel]; details: max 3 µM
# Method in brief: as §1
# Palbociclib = compound: CC(=O)c1c(C)c2cnc(Nc3ccc(N4CCNCC4)cn3)nc2n(C2CCCC2)c1=O [Palbociclib]; details: max 10 µM
# Method in brief: as §1
# AZD1390 = compound: CC(C)n1c(=O)n(C)c2cnc3cc(F)c(-c4ccc(OCCCN5CCCCC5)nc4)cc3c21 [AZD1390]; details: max 0.3 µM
# Method in brief: as §1
# Venetoclax = compound: CC1(C)CCC(CN2CCN(c3ccc(C(=O)NS(=O)(=O)c4ccc(NCC5CCOCC5)c([N+](=O)[O-])c4)c(Oc4cnc5[nH]ccc5c4)c3)CC2)=C(c2ccc(Cl)cc2)C1 [Venetoclax]; details: max 1 µM
# Method in brief: as §1
# Dasatinib = compound: CC1=C(C(=CC=C1)Cl)NC(=O)C2=CN=C(S2)NC3=CC(=NC(=N3)C)N4CCN(CC4)CCO [Dasatinib]; details: max 2 µM
# Method in brief: as §1
# SG3199 = compound: CC1=CN2[C@@H](C1)C=NC3=CC(=C(C=C3C2=O)OC)OCCCCCOC4=C(C=C5C(=C4)N=C[C@@H]6CC(=CN6C5=O)C)OC [SG3199]; details: max 0.001 µM
# Method in brief: as §1
# AZD2811 = compound: CCN(CCO)CCCOc1ccc2c(Nc3cc(CC(=O)Nc4cccc(F)c4)[nH]n3)ncnc2c1 [AZD2811]; details: max 1 µM
# Method in brief: as §1
# SN-38 = compound: CCc1c2c(nc3ccc(O)cc13)-c1cc3c(c(=O)n1C2)COC(=O)[C@]3(O)CC [SN-38]; details: max 0.3 µM
# Method in brief: as §1
# AZD0156 = compound: CN(C)CCCOc1ccc(-c2ccc3ncc4c(c3c2)n(C2CCOCC2)c(=O)n4C)cn1 [AZD0156]; details: max 3 µM
# Method in brief: as §1
# AZD4320 = compound: CN(CC[C@H](CSC1=CC=CC=C1)NC2=C(C=C(C=C2)S(=O)(=O)NC(=O)C3=CC=C(C=C3)N4CCC(CC4)[C@H](C5=CC=CC=C5C6=CC=C(C=C6)Cl)O)S(=O)(=O)C(F)(F)F)CCO [AZD4320]; details: max 1 µM
# Method in brief: as §1
# Alisertib = compound: COc1cc(Nc2ncc3c(n2)-c2ccc(Cl)cc2C(c2c(F)cccc2OC)=NC3)ccc1C(=O)O [Alisertib]; details: max 10 µM
# Method in brief: as §1
# Etoposide = compound: COc1cc([C@@H]2c3cc4c(cc3[C@@H](O[C@@H]3O[C@@H]5CO[C@@H](C)O[C@H]5[C@H](O)[C@H]3O)[C@H]3COC(=O)[C@H]23)OCO4)cc(OC)c1O [Etoposide]; details: max 10 µM
# Method in brief: as §1
# Gefitinib = compound: COc1cc2ncnc(Nc3ccc(F)c(Cl)c3)c2cc1OCCCN1CCOCC1 [Gefitinib]; details: max 10 µM
# Method in brief: as §1
# Prexasertib = compound: COc1cccc(OCCCN)c1-c1cc(Nc2cnc(C#N)cn2)n[nH]1 [Prexasertib]; details: max 1 µM
# Method in brief: as §1
# Doxorubicin = compound: COc1cccc2c1C(=O)c1c(O)c3c(c(O)c1C2=O)C[C@@](O)(C(=O)CO)C[C@@H]3O[C@H]1C[C@H](N)[C@H](O)[C@H](C)O1 [Doxorubicin]; details: max 1 µM
# Method in brief: as §1
# AZD5153 = compound: COc1nnc2ccc(N3CCC(c4ccc(OCCN5CCN(C)C(=O)[C@H]5C)cc4)CC3)nn12 [AZD5153]; details: max 1 µM
# Method in brief: as §1
# Lapatinib = compound: CS(=O)(=O)CCNCc1ccc(-c2ccc3ncnc(Nc4ccc(OCc5cccc(F)c5)c(Cl)c4)c3c2)o1 [Lapatinib]; details: max 10 µM
# Method in brief: as §1
# AZD8186 = compound: C[C@@H](Nc1cc(F)cc(F)c1)c1cc(C(=O)N(C)C)cc2c(=O)cc(N3CCOCC3)oc12 [AZD8186]; details: max 10 µM
# Method in brief: as §1
# Crizotinib = compound: C[C@@H](Oc1cc(-c2cnn(C3CCNCC3)c2)cnc1N)c1c(Cl)ccc(F)c1Cl [Crizotinib]; details: max 10 µM
# Method in brief: as §1
# Savolitinib = compound: C[C@@H](c1ccc2nccn2c1)n1nnc2ncc(-c3cnn(C)c3)nc21 [Savolitinib]; details: max 1 µM
# Method in brief: as §1
# AZD6738 = compound: C[C@@H]1COCCN1C2=NC(=NC(=C2)C3(CC3)[S@](=N)(=O)C)C4=C5C=CNC5=NC=C4 [AZD6738]; details: max 10 µM
# Method in brief: as §1
# AZD5991 = compound: Cc1c2c(nn1C)CSCc1cc(n(C)n1)CSc1cc(c3ccccc3c1)OCCCc1c(C(=O)O)n(C)c3c-2c(Cl)ccc13 [AZD5991]; details: max 1 µM
# Method in brief: as §1
# AZD7648 = compound: Cc1cc2ncnn2cc1Nc1ncc2c(n1)n(C1CCOCC1)c(=O)n2C [AZD7648]; details: max 10 µM
# Method in brief: as §1
# Taselisib = compound: Cc1nc(-c2cn3c(n2)-c2ccc(-c4cnn(C(C)(C)C(N)=O)c4)cc2OCC3)n(C(C)C)n1 [Taselisib]; details: max 10 µM
# Method in brief: as §1
# Selumetinib = compound: Cn1cnc2c(F)c(Nc3ccc(Br)cc3Cl)c(C(=O)NOCCO)cc21 [Selumetinib]; details: max 10 µM
# Method in brief: as §1
# SRA737 = compound: N#Cc1cnc(Nc2cc(NC[C@H]3CNCCO3)c(C(F)(F)F)cn2)cn1 [SRA737]; details: max 10 µM
# Method in brief: as §1
# MK-2206 = compound: NC1(c2ccc(-c3nc4ccn5c(=O)[nH]nc5c4cc3-c3ccccc3)cc2)CCC1 [MK-2206]; details: max 10 µM
# Method in brief: as §1
# Gemcitabine = compound: Nc1ccn([C@@H]2O[C@H](CO)[C@@H](O)C2(F)F)c(=O)n1 [Gemcitabine]; details: max 0.3 µM
# Method in brief: as §1
# [1] = compound: O=C(Nc1ccc2[nH]nc(-c3ccncc3)c2c1)[C@@H]1CCN(CC(=O)N2CCN(c3ccc(-c4ncccn4)cc3)CC2)C1; details: max 5 µM
# Method in brief: as §1
# Olaparib = compound: O=C(c1cc(Cc2n[nH]c(=O)c3ccccc23)ccc1F)N1CCN(C(=O)C2CC2)CC1 [Olaparib]; details: max 10 µM
# Method in brief: as §1
# 5-Fluorouracil = compound: O=c1[nH]cc(F)c(=O)[nH]1 [5-Fluorouracil]; details: max 20 µM
# Method in brief: as §1
Cell Line,"IC50, cell viability 72 h (Carboplatin) [nM]","IC50, cell viability 72 h (AZD5363) [nM]","IC50, cell viability 72 h (AZD1775) [nM]","IC50, cell viability 72 h (Trametinib) [nM]","IC50, cell viability 72 h (Paclitaxel) [nM]","IC50, cell viability 72 h (Palbociclib) [nM]","IC50, cell viability 72 h (AZD1390) [nM]","IC50, cell viability 72 h (Venetoclax) [nM]","IC50, cell viability 72 h (Dasatinib) [nM]","IC50, cell viability 72 h (SG3199) [nM]","IC50, cell viability 72 h (AZD2811) [nM]","IC50, cell viability 72 h (SN-38) [nM]","IC50, cell viability 72 h (AZD0156) [nM]","IC50, cell viability 72 h (AZD4320) [nM]","IC50, cell viability 72 h (Alisertib) [nM]","IC50, cell viability 72 h (Etoposide) [nM]","IC50, cell viability 72 h (Gefitinib) [nM]","IC50, cell viability 72 h (Prexasertib) [nM]","IC50, cell viability 72 h (Doxorubicin) [nM]","IC50, cell viability 72 h (AZD5153) [nM]","IC50, cell viability 72 h (Lapatinib) [nM]","IC50, cell viability 72 h (AZD8186) [nM]","IC50, cell viability 72 h (Crizotinib) [nM]","IC50, cell viability 72 h (Savolitinib) [nM]","IC50, cell viability 72 h (AZD6738) [nM]","IC50, cell viability 72 h (AZD5991) [nM]","IC50, cell viability 72 h (AZD7648) [nM]","IC50, cell viability 72 h (Taselisib) [nM]","IC50, cell viability 72 h (Selumetinib) [nM]","IC50, cell viability 72 h (SRA737) [nM]","IC50, cell viability 72 h (MK-2206) [nM]","IC50, cell viability 72 h (Gemcitabine) [nM]","IC50, cell viability 72 h [1] [nM]","IC50, cell viability 72 h (Olaparib) [nM]","IC50, cell viability 72 h (5-Fluorouracil) [nM]"
PEO1 (Ovarian Carcinoma),> 10000,> 10000,1540,> 1000,52.9,> 10000,> 300,> 1000,> 2000,> 1,> 1000,57.3,> 3000,> 1000,> 10000,> 10000,> 10000,> 1000,> 1000,> 1000,> 10000,> 10000,> 10000,> 1000,> 10000,> 1000,> 10000,8190,> 10000,> 10000,> 10000,> 300,> 5000,> 10000,> 20000
SW620 (Colorectal Carcinoma),> 10000,> 10000,1140,39.6,116,> 10000,> 300,> 1000,> 2000,> 1,> 1000,32.2,> 3000,> 1000,> 10000,3420,> 10000,306,640,> 1000,> 10000,> 10000,> 10000,> 1000,> 10000,> 1000,> 10000,> 10000,911,> 10000,> 10000,97.6,928,> 10000,> 20000
NCI-H1703 (Squamous Cell Lung Carcinoma),> 10000,6660,222,> 1000,5.86,9730,> 300,> 1000,47.8,> 1,> 1000,36.7,> 3000,> 1000,6210,1640,> 10000,8.59,142,400,> 10000,4060,8010,> 1000,917,393,> 10000,625,> 10000,1170,2830,4.23,> 5000,> 10000,> 20000
22RV1 (Prostate Carcinoma),> 10000,> 10000,> 3000,> 1000,50.6,> 10000,> 300,> 1000,> 2000,> 1,> 1000,28.9,> 3000,> 1000,> 10000,> 10000,> 10000,> 1000,426,> 1000,> 10000,> 10000,> 10000,> 1000,> 10000,> 1000,> 10000,1860,> 10000,> 10000,6050,101,> 5000,> 10000,> 20000
CGTH-W-1 (Thyroid Gland Carcinoma),> 10000,> 10000,> 3000,> 1000,2590,> 10000,> 300,> 1000,544,> 1,> 1000,30.8,> 3000,> 1000,> 10000,> 10000,> 10000,129,934,> 1000,> 10000,> 10000,> 10000,> 1000,> 10000,> 1000,> 10000,9160,> 10000,> 10000,> 10000,119,> 5000,> 10000,> 20000
